One substance from patent US8466202B2, “Anthracenedione compounds” (Sunten Phytotech Co., Ltd., priority 2006, dated 2013) can be followed below.

The test system of test [1] is healthy male S.D. rats. Nature of the test: Feces production in rats given Rheum palmatum Linne extracts for three weeks (Example 2). The conditions noted are these: oral everyday, Rheum palmatum crude extract 500, Bisacodyl 1.75, Sennosides 3.55, STD03 180, STD05-1 12, STD05-2 24 mg/kg; for Water content: feces; for Pellet count / Wet Weight: total of the six rats in the group. The class given is in vivo, rat. As for the experimental part:
The laxative activities by Rheum palmatum Linne extracts were studied. A crude Rheum palmatum Linne extract and STD05 were obtained from SunTen Phytotech Co., Ltd. (Jhonghe City, Taiwan). Commercial available laxatives, Through® (Chung Mei Pharmaceutical Co., Ltd.; active ingredient: Sennosides 20 mg, as Sennosides A+B 12 mg, Lot. 009A 051) and Dulcolax® (Boehringer Ingelheim, Taiwan, Ltd.; active ingredient: Bisacodyl; Lot. 480-4942) were obtained from a pharmacy.
Forty-two healthy male S.D. rats (8 weeks old; National Laboratory Animal Center, Taiwan) were divided into seven groups (six in each) and tested for the laxative activity by Rheum palmatum Linne extracts. The rats in one group were not fed with any extract or drug and used as negative controls. The rats in the second and third group were given Sennosides (3.55 mg/kg) and Bisacodyl (1.75 mg/kg), respectively, and used as positive controls. The Rats in the other four groups were given Rheum palmatum Linne crude extract (500 mg/kg), filtered crude extract STD03 (180 mg/kg), and STD05 (STD05-1: 12 mg/kg and STD05-2: 24 mg/kg), respectively. All substances were administered orally everyday for three weeks.
The experiments were carried out under conditions in which temperature, humidity, and lighting were all controlled. Each rat was fed standard rat food and water ad libitum in housing that provided a 12-hour light/dark cycle. The rats were divided into seven groups according to the body weights.
The first part of the experiment studied the effect of the above-mentioned extracts on feces production. During the three-week period, any rat that appeared dying was euthanized, dissected, and studied to check for any illness or injures. Any complications or illness were analyzed by H&E stains to determine the cause of death and to allow for dosage reconsiderations for future experiments.
During this period, the body weights of the rats were weighed each day and recorded. Feces of each rat were studied three times during the period for any unusual observations. Specifically, the amounts of feces were weighed on Days 11, 15, 18, and 21. During observation, each rat was placed in a metabolic cage. Feces were collected every twenty-four hours. The number of collected feces pellets was counted, and the pellets' shapes and colors were evaluated. After weighing the moist feces, they were dried in an oven at 100° C. for twenty-four hours. The water content from the feces was calculated according to the following formula: Water content percentage=[(wet weight−dry weight)/wet weight]×100%.
Intestine motility data were expressed as mean±SD. Data were analyzed using the one-way ANOVA method. For comparison within the groups, a Post hoc Comparison was applied. In both feces production and intestine motility analyses, p<0.05 indicates significant differences. For the feces production tests, the data for each group and each time point represent the total wet weight or pellet count of the six rats in the group.

Test [2] is described as follows: Body weight of rats over the 10-day period (Example 3). Details: Body weight Difference: unit not given here. The settings on record: Sennosides 3.35 mg/kg/day; for Body weight Difference, Mean / Body weight End Day 10, Mean: group mean; for Body weight Difference, Mean / Body weight Difference: Day 10 minus Day 1; for Body weight Difference / Body weight End Day 10: individual rats. The class given is in vivo, rat. The method in brief: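 Healthy male S.D. rats, 6 per treatment, given test substances daily at 4–24 mg/kg/day (dose per substance), with untreated and 3.35 mg/kg/day sennoside controls. Body weight recorded each day over 10 days; standard food and water ad libitum, 12-hour light/dark cycle.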

Setting [3] is: Group I, STD05 8 mg/kg, ARE 8 mg/kg, Aloe-emodin 4 mg/kg, Rhein 4 mg/kg.
[4] abbreviates: Group II, STD05 24 mg/kg, ARE 24 mg/kg, Chrysophanol 4 mg/kg, Emodin 4 mg/kg.

Values joined by “and” are separate entries in the source; they are usually repeats but may differ in a detail not shown here. Equal entries are not always repeated.

On to Sennosides, for which, in test [1] (Day 11), the Water content was determined as 52.70%, the Pellet count turned out to be 121 and the “Wet Weight” value is recorded as 29.21 g. For the same substance, in test [1] (Day 15), the Water content is listed as 60.40%, the Pellet count is recorded as 119 and the “Wet Weight” value was 30.95 g. In test [1] (Day 18), the Water content came out at 47.30%, the Pellet count was found to be 106 and the “Wet Weight” value is listed as 23.90 g. In test [1] (Day 21), the Water content is listed as 44.73%, the Pellet count is 123 and the “Wet Weight” value turned out to be 27.80 g. For the same substance, in test [2] (setting [3]), the Body weight Difference, Mean worked out at 53 g; the Body weight End Day 10, Mean amounted to 338 g; the “Body weight Difference” value is 45 (2×) and 60 and 35 and 65 and 70; the “Body weight End Day 10” value was 325 and 330 and 350 (2×) and 310 and 365. Besides, in test [2] (setting [4]), the Body weight Difference, Mean stood at 41 g; the Body weight End Day 10, Mean came to 398 g; the “Body weight Difference” value was 30 and 45 and 40 (2×) and 35 and 55. Further, the “Body weight End Day 10” value in test [2] (Group II, STD05 24 mg/kg, ARE 24 mg/kg, Chrysophanol 4 mg/kg, Emodin 4 mg/kg, in g (unit assumed)) is 370 and 395 and 405 and 360 and 410 and 445.
